The values that follow come from US12122763B2, “Substituted piperidines for androgen receptor degradation” (UBIX THERAPEUTICS, INC., priority 2020, dated 2024).

One may read the inhibition as the drop in the measured response relative to a control, in per cent.

This test deals with T1, Androgen Receptor (AR) protein (Homo sapiens, UniProt P10275, T878A).
T1 construct: endogenous in cells; host or cells: LNCaP
Put plainly: Androgen Receptor (AR) protein degradation assay in LNCaP cells, western blotting. The note with it: 20 h; for inhibition at 0.01 µM: 0.01 μM compound; for inhibition at 0.1 µM: 0.1 μM compound; for inhibition at 1 µM: 1 μM compound. It is filed as cell-based. In outline:
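AR protein level was detected by western blot (ECL) against GAPDH or β-actin controls, with 8 μg lysate protein loaded per lane after BCA quantification. Lysates came from LNCaP cells exposed to test compound for 20 h, following 3 days of growth in RPMI/10% FBS.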
On the technique in general: In western blotting, separated proteins are transferred to a membrane and probed.

T1 sequence (P10275 whole entry T878A): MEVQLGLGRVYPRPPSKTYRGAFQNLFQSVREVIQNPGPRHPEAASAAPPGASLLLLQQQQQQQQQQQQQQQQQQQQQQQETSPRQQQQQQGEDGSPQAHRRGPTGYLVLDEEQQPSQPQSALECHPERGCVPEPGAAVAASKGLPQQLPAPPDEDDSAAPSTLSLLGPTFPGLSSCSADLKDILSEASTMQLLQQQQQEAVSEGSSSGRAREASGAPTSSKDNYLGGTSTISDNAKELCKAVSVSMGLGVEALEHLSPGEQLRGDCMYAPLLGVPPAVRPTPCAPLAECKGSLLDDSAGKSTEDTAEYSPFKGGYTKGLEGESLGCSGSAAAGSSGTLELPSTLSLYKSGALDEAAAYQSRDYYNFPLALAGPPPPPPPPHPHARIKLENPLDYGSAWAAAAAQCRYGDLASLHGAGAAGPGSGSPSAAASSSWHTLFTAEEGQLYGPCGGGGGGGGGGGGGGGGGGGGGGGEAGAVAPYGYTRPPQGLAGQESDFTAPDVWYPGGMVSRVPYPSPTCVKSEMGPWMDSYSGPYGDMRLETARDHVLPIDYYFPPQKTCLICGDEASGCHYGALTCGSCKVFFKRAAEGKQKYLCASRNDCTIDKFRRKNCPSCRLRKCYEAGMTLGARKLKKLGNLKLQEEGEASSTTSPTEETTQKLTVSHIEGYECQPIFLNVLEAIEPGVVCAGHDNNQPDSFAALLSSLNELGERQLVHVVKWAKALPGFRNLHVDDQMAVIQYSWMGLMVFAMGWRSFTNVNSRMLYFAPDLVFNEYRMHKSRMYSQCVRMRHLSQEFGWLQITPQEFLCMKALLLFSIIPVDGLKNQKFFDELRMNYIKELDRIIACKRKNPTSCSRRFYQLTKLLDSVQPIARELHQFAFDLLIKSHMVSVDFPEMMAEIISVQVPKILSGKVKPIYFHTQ
T1 sequence (Q96SW2 whole entry partner): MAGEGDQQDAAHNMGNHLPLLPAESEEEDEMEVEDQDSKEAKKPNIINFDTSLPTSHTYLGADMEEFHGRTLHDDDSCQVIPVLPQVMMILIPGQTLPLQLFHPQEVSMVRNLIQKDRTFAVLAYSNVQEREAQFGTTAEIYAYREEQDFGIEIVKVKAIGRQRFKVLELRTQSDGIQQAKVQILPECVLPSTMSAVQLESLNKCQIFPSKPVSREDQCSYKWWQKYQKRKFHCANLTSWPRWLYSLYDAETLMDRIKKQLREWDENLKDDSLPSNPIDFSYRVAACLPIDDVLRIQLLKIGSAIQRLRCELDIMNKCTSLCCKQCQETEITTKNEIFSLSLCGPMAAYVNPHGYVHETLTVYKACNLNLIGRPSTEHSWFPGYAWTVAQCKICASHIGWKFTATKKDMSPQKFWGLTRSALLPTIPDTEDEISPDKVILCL

Turning to `N#Cc1ccc(N2CCC(C(=O)Nc3ccc(N4CC(CN5CCC(Oc6ccc7c(c6)C(=O)N(C6CCC(=O)NC6=O)C7=O)CC5)C4)cn3)CC2)cc1C(F)(F)F` (stereo not drawn) [Example 148, 1-(4-cyano-3-(trifluoromethyl)phenyl)-N-(5-(3-((4-((2-(2,6-dioxopiperidin-3-yl)-1,3-dioxoisoindolin-5-yl)oxy)piperidin-1-yl)methyl)azetidin-1-yl)pyridin-2-yl)piperidine-4-carboxamide], the inhibition at 0.01 µM worked out at 27%, the inhibition at 0.1 µM was found to be 87% and the inhibition at 1 µM amounted to 93%.
The matching figures for `N#Cc1ccc(N2CCC(C(=O)Nc3ccc(N4CC(CN5CCC(COc6ccc7c(c6)C(=O)N(C6CCC(=O)NC6=O)C7=O)CC5)C4)cn3)CC2)cc1C(F)(F)F` (stereo not drawn) [Example 149, 1-(4-cyano-3-(trifluoromethyl)phenyl)-N-(5-(3-((4-(((2-(2,6-dioxopiperidin-3-yl)-1,3-dioxoisoindolin-5-yl)oxy)methyl)piperidin-1-yl)methyl)azetidin-1-yl)pyridin-2-yl)piperidine-4-carboxamide]: 56%, 97% and 97%.
The matching figures for `N#Cc1ccc(N2CCC(C(=O)Nc3ccc(N4CCC(OCCN5CCN(c6ccc7c(c6)C(=O)N(C6CCC(=O)NC6=O)C7=O)CC5)CC4)cn3)CC2)cc1C(F)(F)F` (stereo not drawn) [Example 150, 1-(4-cyano-3-(trifluoromethyl)phenyl)-N-(5-(4-(2-(4-(2-(2,6-dioxopiperidin-3-yl)-1,3-dioxoisoindolin-5-yl)piperazin-1-yl)ethoxy)piperidin-1-yl)pyridin-2-yl)piperidine-4-carboxamide]: 55%, 97% and 99%.
The matching figures for `N#Cc1ccc(N2CCC(C(=O)Nc3ccc(N4CCC(OCCN5CCN(c6ccc7c(c6)C(=O)N(C6CCC(=O)NC6=O)C7=O)CC5)CC4)cn3)CC2)cc1Cl` (stereo not drawn) [Example 151, 1-(3-chloro-4-cyanophenyl)-N-(5-(4-(2-(4-(2-(2,6-dioxopiperidin-3-yl)-1,3-dioxoisoindolin-5-yl)piperazin-1-yl)ethoxy)piperidin-1-yl)pyridin-2-yl)piperidine-4-carboxamide]: -14%, 76% and 92%.
In the case of `N#Cc1ccc(N2CCC(C(=O)Nc3ccc(N4CCC(OCCN5CCN(c6cccc7c6C(=O)N(C6CCC(=O)NC6=O)C7=O)CC5)CC4)cn3)CC2)cc1C(F)(F)F` (stereo not drawn) [Example 152, 1-(4-cyano-3-(trifluoromethyl)phenyl)-N-(5-(4-(2-(4-(2-(2,6-dioxopiperidin-3-yl)-1,3-dioxoisoindolin-4-yl)piperazin-1-yl)ethoxy)piperidin-1-yl)pyridin-2-yl)piperidine-4-carboxamide], the inhibition at 0.01 µM was -46%, the inhibition at 0.1 µM was 28% and the inhibition at 1 µM came out at 29%.
Regarding `N#Cc1ccc(N2CCC(C(=O)Nc3ccc(N4CCC(O)(CCN5CCN(c6ccc7c(c6)C(=O)N(C6CCC(=O)NC6=O)C7=O)CC5)CC4)cn3)CC2)cc1C(F)(F)F` (stereo not drawn) [Example 153, 1-(4-cyano-3-(trifluoromethyl)phenyl)-N-(5-(4-(2-(4-(2-(2,6-dioxopiperidin-3-yl)-1,3-dioxoisoindolin-5-yl)piperazin-1-yl)ethyl)-4-hydroxypiperidin-1-yl)pyridin-2-yl)piperidine-4-carboxamide], the inhibition at 0.01 µM came to 56%, the inhibition at 0.1 µM is 95% and the inhibition at 1 µM is 97%.
The matching figures for `N#Cc1ccc(N2CCC(C(=O)Nc3ccc(N4CCC(C(=O)N5CC6(CCN(c7ccc8c(c7)C(=O)N(C7CCC(=O)NC7=O)C8=O)CC6)C5)CC4)cn3)CC2)cc1C(F)(F)F` (stereo not drawn) [Example 154, 1-(4-cyano-3-(trifluoromethyl)phenyl)-N-(5-(4-(7-(2-(2,6-dioxopiperidin-3-yl)-1,3-dioxoisoindolin-5-yl)-2,7-diazaspiro[3.5]nonane-2-carbonyl)piperidin-1-yl)pyridin-2-yl)piperidine-4-carboxamide]: 26%, 86% and 91%.
The matching figures for `N#Cc1ccc(N2CCC(C(=O)Nc3cnc(N4CCC(CN5CC6(CCN(c7ccc8c(c7)C(=O)N(C7CCC(=O)NC7=O)C8=O)CC6)C5)CC4)cn3)CC2)cc1C(F)(F)F` (stereo not drawn) [Example 155, 1-(4-cyano-3-(trifluoromethyl)phenyl)-N-(5-(4-((7-(2-(2,6-dioxopiperidin-3-yl)-1,3-dioxoisoindolin-5-yl)-2,7-diazaspiro[3.5]nonan-2-yl)methyl)piperidin-1-yl)pyrazin-2-yl)piperidine-4-carboxamide]: 38%, 89% and 98%.
The matching figures for `N#Cc1ccc(N2CCC(C(=O)Nc3cnc(N4CCC(CCN5CCN(c6ccc7c(c6)C(=O)N(C6CCC(=O)NC6=O)C7=O)CC5)CC4)cn3)CC2)cc1C(F)(F)F` (stereo not drawn) [Example 156, 1-(4-cyano-3-(trifluoromethyl)phenyl)-N-(5-(4-(2-(4-(2-(2,6-dioxopiperidin-3-yl)-1,3-dioxoisoindolin-5-yl)piperazin-1-yl)ethyl)piperidin-1-yl)pyrazin-2-yl)piperidine-4-carboxamide]: 35%, 76% and 96%.
In the case of `N#Cc1ccc(N2CCC(C(=O)Nc3ncc(N4CCC(CN5CCN(CC6CCN(c7ccc8c(c7)C(=O)N(C7CCC(=O)NC7=O)C8=O)CC6)CC5)CC4)cn3)CC2)cc1C(F)(F)F` (stereo not drawn) [Example 157, 1-(4-cyano-3-(trifluoromethyl)phenyl)-N-(5-(4-((4-((1-(2-(2,6-dioxopiperidin-3-yl)-1,3-dioxoisoindolin-5-yl)piperidin-4-yl)methyl)piperazin-1-yl)methyl)piperidin-1-yl)pyrimidin-2-yl)piperidine-4-carboxamide], the inhibition at 0.01 µM was determined as 0%, the inhibition at 0.1 µM was 33% and the inhibition at 1 µM worked out at 78%.
The matching figures for `N#Cc1ccc(N2CCC(C(=O)Nc3ncc(N4CCC(CN5CCN(C[C@H]6CCN(c7ccc8c(c7)C(=O)N(C7CCC(=O)NC7=O)C8=O)C6)CC5)CC4)cn3)CC2)cc1C(F)(F)F` (stereo partly drawn) [Example 158, 1-(4-cyano-3-(trifluoromethyl)phenyl)-N-(5-(4-((4-(((3R)-1-(2-(2,6-dioxopiperidin-3-yl)-1,3-dioxoisoindolin-5-yl)pyrrolidin-3-yl)methyl)piperazin-1-yl)methyl)piperidin-1-yl)pyrimidin-2-yl)piperidine-4-carboxamide]: -7%, 27% and 65%.
The matching figures for `N#Cc1ccc(N2CCC(C(=O)Nc3ncc(N4CCC(CN5CCN(CC6CCN(c7cc8c(cc7F)C(=O)N(C7CCC(=O)NC7=O)C8=O)CC6)CC5)CC4)cn3)CC2)cc1C(F)(F)F` (stereo not drawn) [Example 159, 1-(4-cyano-3-(trifluoromethyl)phenyl)-N-(5-(4-((4-((1-(2-(2,6-dioxopiperidin-3-yl)-6-fluoro-1,3-dioxoisoindolin-5-yl)piperidin-4-yl)methyl)piperazin-1-yl)methyl)piperidin-1-yl)pyrimidin-2-yl)piperidine-4-carboxamide]: -16%, -5% and 84%.
For `N#Cc1ccc(N2CCC(C(=O)Nc3ncc(N4CCC(CN5CCN(C[C@H]6CCN(c7cc8c(cc7F)C(=O)N(C7CCC(=O)NC7=O)C8=O)C6)CC5)CC4)cn3)CC2)cc1C(F)(F)F` (stereo partly drawn) [Example 160, 1-(4-cyano-3-(trifluoromethyl)phenyl)-N-(5-(4-((4-(((3R)-1-(2-(2,6-dioxopiperidin-3-yl)-6-fluoro-1,3-dioxoisoindolin-5-yl)pyrrolidin-3-yl)methyl)piperazin-1-yl)methyl)piperidin-1-yl)pyrimidin-2-yl)piperidine-4-carboxamide], the inhibition at 0.01 µM was -19%, the inhibition at 0.1 µM turned out to be 4% and the inhibition at 1 µM came to 71%.
The matching figures for `N#Cc1ccc(N2CCC(C(=O)Nc3ccc(CN4CCC(CN5CCN(c6ccc7c(c6)C(=O)N(C6CCC(=O)NC6=O)C7=O)CC5)CC4)cn3)CC2)cc1C(F)(F)F` (stereo not drawn) [Example 161, 1-(4-cyano-3-(trifluoromethyl)phenyl)-N-(5-((4-((4-(2-(2,6-dioxopiperidin-3-yl)-1,3-dioxoisoindolin-5-yl)piperazin-1-yl)methyl)piperidin-1-yl)methyl)pyridin-2-yl)piperidine-4-carboxamide]: 9%, 58% and 86%.
The matching figures for `N#Cc1ccc(N2CCC(C(=O)Nc3ccc(CN4CCN(CC5CCN(c6ccc7c(c6)C(=O)N(C6CCC(=O)NC6=O)C7=O)CC5)CC4)cn3)CC2)cc1C(F)(F)F` (stereo not drawn) [Example 162, 1-(4-cyano-3-(trifluoromethyl)phenyl)-N-(5-((4-((1-(2-(2,6-dioxopiperidin-3-yl)-1,3-dioxoisoindolin-5-yl)piperidin-4-yl)methyl)piperazin-1-yl)methyl)pyridin-2-yl)piperidine-4-carboxamide]: 62%, 95% and 97%.
The matching figures for `N#Cc1ccc(N2CCC(C(=O)Nc3ccc(CN4CCC(CN5CCC(Oc6ccc7c(c6)C(=O)N(C6CCC(=O)NC6=O)C7=O)CC5)CC4)cn3)CC2)cc1C(F)(F)F` (stereo not drawn) [Example 163, 1-(4-cyano-3-(trifluoromethyl)phenyl)-N-(5-((4-((4-((2-(2,6-dioxopiperidin-3-yl)-1,3-dioxoisoindolin-5-yl)oxy)piperidin-1-yl)methyl)piperidin-1-yl)methyl)pyridin-2-yl)piperidine-4-carboxamide]: -14%, 60% and 78%.
